Laboratory results from PubChem BioAssay (NCI).
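Values below derive from 48-hour exposures of cells grown in 96-well plates, with endpoints linearly interpolated between the two concentrations bracketing the appropriate inhibition level. GI50 marks 50% less growth. At the TGI there is no net growth.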

What was measured:
Assay in all cases: inhibition of tumour cell growth, NCI panel, 48 h
[1] = test system: NCI-H522 lung
[2] = test system: NCI-H226 lung
[3] = test system: BT-549 breast
[4] = test system: SK-MEL-5 melanoma
[5] = test system: MDA-MB-231 breast
[6] = test system: KM12 colon
[7] = test system: SNB-19 CNS
[8] = test system: RPMI-8226 leukemia
[9] = test system: T-47D breast
[10] = test system: SF-295 CNS
[11] = test system: CAKI-1 renal
[12] = test system: HT29 colon
[13] = test system: SK-MEL-2 melanoma
[14] = test system: ACHN renal
[15] = test system: MDA-MB-435
[16] = test system: SK-MEL-28 melanoma
[17] = test system: UO-31 renal
[18] = test system: NCI-H460 lung
[19] = test system: M14 melanoma
[20] = test system: EKVX NSCLC
[21] = test system: IGROV1 ovarian
[22] = test system: LOX IMVI melanoma
[23] = test system: SF-539 CNS
[24] = test system: HS 578T breast
[25] = test system: A549 NSCLC
[26] = test system: MALME-3M melanoma
[27] = test system: HCT-116 colon
[28] = test system: SR leukemia
[29] = test system: 786-0 renal
[30] = test system: SN12C renal
[31] = test system: SF-268 CNS
[32] = test system: OVCAR-5 ovarian
[33] = test system: TK-10 renal
[34] = test system: OVCAR-8 ovarian
[35] = test system: SK-OV-3 ovarian
[36] = test system: U251 CNS
[37] = test system: HL-60(TB) leukemia
[38] = test system: MCF7 breast
[39] = test system: HOP-62 NSCLC
[40] = test system: NCI/ADR-RES ovarian
[41] = test system: UACC-62 melanoma
[42] = test system: A498 renal
[43] = test system: PC-3 prostate
[44] = test system: DU-145 prostate
[45] = test system: NCI-H23 lung
[46] = test system: HCT-15 colon
[47] = test system: OVCAR-4 ovarian
[48] = test system: SW-620 colon
[49] = test system: COLO 205 colon
[50] = test system: HCC-2998 colon
[51] = test system: MOLT-4 leukemia
[52] = test system: SNB-75 CNS
[53] = test system: OVCAR-3 ovarian
[54] = test system: RXF 393 renal
[55] = test system: HOP-92 NSCLC
[56] = test system: CCRF-CEM leukemia
[57] = test system: K-562 leukemia
[58] = test system: UACC-257 melanoma

`CC1=C([Se]CC(OC(=O)[C@@H](CSSC(C)(C)C)NC(=O)C(C)(C)C)C(=O)NCCCCCC(=O)OCc2ccccc2)C(=O)c2ccccc2C1=O` (stereo not given in full) gave a GI50 [1] of 1690 nM, a TGI [1] of 3210 nM and a GI50 [2] of 2360 nM. It also gave a TGI [2] of 4630 nM, a GI50 [3] of 1760 nM and a TGI [3] of 3150 nM. It also gave a GI50 [4] of 1890 nM, a TGI [4] of 3340 nM and a GI50 [5] of 1920 nM. It also gave a TGI [5] of 4230 nM, a GI50 [6] of 1800 nM and a TGI [6] of 3500 nM. It also gave a GI50 [7] of 1090 nM, a TGI [7] of 2560 nM and a GI50 [8] of 2330 nM. It also gave a TGI [8] of 6740 nM, a GI50 [9] of 2190 nM and a TGI [9] of 6390 nM. It also gave a GI50 [10] of 317 nM, a TGI [10] of 1950 nM and a GI50 [11] of 2180 nM. It also gave a TGI [11] of 4520 nM, a GI50 [12] of 2690 nM and a TGI [12] of 7340 nM. For the same molecule, the GI50 [13] was 2260 nM, the TGI [13] was 5060 nM and the GI50 [14] was 2160 nM. It also gave a TGI [14] of 4940 nM, a GI50 [15] of 2280 nM and a TGI [15] of 5550 nM. The GI50 [16] was 1920 nM, the TGI [16] was 3530 nM and the GI50 [17] was 1470 nM. It also gave a TGI [17] of 3160 nM, a GI50 [18] of 637 nM and a TGI [18] of 2520 nM. The GI50 [19] was 2050 nM, the TGI [19] was 4040 nM and the GI50 [20] was 2240 nM. It also gave a TGI [20] of 5410 nM, a GI50 [21] of 1900 nM and a TGI [21] of 3660 nM. The GI50 [22] was 2590 nM, the TGI [22] was 7620 nM and the GI50 [23] was 1900 nM. For the same molecule, the TGI [23] was 3360 nM, the GI50 [24] was 2180 nM and the TGI [24] was 5560 nM. The GI50 [25] was 2110 nM, the TGI [25] was 5420 nM and the GI50 [26] was 2490 nM. The TGI [26] was 5150 nM, the GI50 [27] was 1530 nM and the TGI [27] was 3680 nM. It also gave a GI50 [28] of 3840 nM, a TGI [28] of 18500 nM and a GI50 [29] of 2100 nM. The TGI [29] was 3660 nM, the GI50 [30] was 2000 nM and the TGI [30] was 3890 nM. It also gave a GI50 [31] of 1910 nM, a TGI [31] of 3510 nM and a GI50 [32] of 2590 nM. It also gave a TGI [32] of 5440 nM, a GI50 [33] of 2420 nM and a TGI [33] of 4430 nM. The GI50 [34] was 2010 nM, the TGI [34] was 3780 nM and the GI50 [35] was 1560 nM. The TGI [35] was 2920 nM, the GI50 [36] was 1250 nM and the TGI [36] was 2810 nM. The GI50 [37] was 2510 nM, the TGI [37] was 5980 nM and the GI50 [38] was 3040 nM. For the same molecule, the TGI [38] was 9740 nM, the GI50 [39] was 1010 nM and the TGI [39] was 3030 nM. It also gave a GI50 [40] of 3400 nM, a TGI [40] of 11400 nM and a GI50 [41] of 1960 nM. For the same molecule, the TGI [41] was 3990 nM, the GI50 [42] was 1630 nM and the TGI [42] was 4770 nM. For the same molecule, the GI50 [43] was 1500 nM, the TGI [43] was 3630 nM and the GI50 [44] was 2130 nM. The TGI [44] was 4510 nM, the GI50 [45] was 2400 nM and the TGI [45] was 7100 nM. For the same molecule, the GI50 [46] was 3200 nM, the TGI [46] was 12900 nM and the GI50 [47] was 1580 nM. It also gave a TGI [47] of 2970 nM, a GI50 [48] of 2310 nM and a TGI [48] of 5200 nM. It also gave a GI50 [49] of 1800 nM, a TGI [49] of 3470 nM and a GI50 [50] of 2200 nM. The TGI [50] was 4000 nM, the GI50 [51] was 3240 nM and the TGI [51] was 9520 nM. The GI50 [52] was 1370 nM, the TGI [52] was 2660 nM and the GI50 [53] was 1870 nM. It also gave a TGI [53] of 3380 nM.

`C=C1C(=O)O[C@H]2[C@H]1CC/C(COC(=O)N[C@@H](Cc1c[nH]c3ccccc13)C(=O)OC)=C\CC[C@@]1(C)O[C@@H]21` was tested, and the GI50 [1] was 1310 nM, the TGI [1] was 2840 nM and the GI50 [2] was 15400 nM. For the same molecule, the TGI [2] was 33500 nM, the GI50 [3] was 1840 nM and the TGI [3] was 3790 nM. The GI50 [4] was 1680 nM, the TGI [4] was 3260 nM and the GI50 [54] was 998 nM. For the same molecule, the TGI [54] was 2290 nM, the GI50 [5] was 1410 nM and the TGI [5] was 3160 nM. For the same molecule, the GI50 [6] was 4110 nM, the TGI [6] was 15600 nM and the GI50 [7] was 2480 nM. For the same molecule, the TGI [7] was 7520 nM, the GI50 [8] was 527 nM and the TGI [8] was 2710 nM. For the same molecule, the GI50 [9] was 1840 nM, the TGI [9] was 4390 nM and the GI50 [10] was 9400 nM. For the same molecule, the TGI [10] was 21600 nM, the GI50 [11] was 1200 nM and the TGI [11] was 2890 nM. For the same molecule, the GI50 [12] was 1440 nM, the TGI [12] was 3040 nM and the GI50 [13] was 2210 nM. For the same molecule, the TGI [13] was 6060 nM, the GI50 [14] was 1160 nM and the TGI [14] was 2440 nM. The GI50 [15] was 1490 nM, the TGI [15] was 3250 nM and the GI50 [16] was 1660 nM. It also gave a TGI [16] of 3530 nM, a GI50 [17] of 1450 nM and a TGI [17] of 2760 nM. For the same molecule, the GI50 [18] was 3400 nM, the TGI [18] was 12600 nM and the GI50 [19] was 1590 nM. For the same molecule, the TGI [19] was 3350 nM, the GI50 [20] was 1780 nM and the TGI [20] was 4430 nM. It also gave a GI50 [21] of 1220 nM, a TGI [21] of 2670 nM and a GI50 [22] of 1160 nM. It also gave a TGI [22] of 2580 nM, a GI50 [23] of 1450 nM and a TGI [23] of 2920 nM. For the same molecule, the GI50 [24] was 4620 nM, the TGI [24] was 28500 nM and the GI50 [55] was 1420 nM. It also gave a TGI [55] of 2980 nM, a GI50 [25] of 9940 nM and a TGI [25] of 24300 nM. The GI50 [26] was 1510 nM, the TGI [26] was 3070 nM and the GI50 [27] was 1250 nM. The TGI [27] was 2790 nM, the GI50 [56] was 621 nM and the TGI [56] was 3180 nM. The GI50 [28] was 262 nM, the TGI [28] was 1510 nM and the GI50 [29] was 1480 nM. The TGI [29] was 2920 nM, the GI50 [30] was 1370 nM and the TGI [30] was 3100 nM. For the same molecule, the GI50 [31] was 2250 nM, the TGI [31] was 6670 nM and the GI50 [32] was 2020 nM. The TGI [32] was 4920 nM, the GI50 [33] was 1720 nM and the TGI [33] was 3190 nM. The GI50 [34] was 2620 nM, the TGI [34] was 10300 nM and the GI50 [35] was 12000 nM. The TGI [35] was 24600 nM, the GI50 [57] was 362 nM and the TGI [57] was 5180 nM. For the same molecule, the GI50 [36] was 2420 nM, the TGI [36] was 7320 nM and the GI50 [37] was 363 nM. For the same molecule, the TGI [37] was 1890 nM, the GI50 [39] was 8770 nM and the TGI [39] was 22100 nM. The GI50 [40] was 6780 nM, the TGI [40] was 27300 nM and the GI50 [41] was 1380 nM. For the same molecule, the TGI [41] was 2840 nM, the GI50 [42] was 10300 nM and the TGI [42] was 22300 nM. For the same molecule, the GI50 [43] was 1450 nM, the TGI [43] was 3410 nM and the GI50 [44] was 1080 nM. It also gave a TGI [44] of 2440 nM, a GI50 [45] of 1840 nM and a TGI [45] of 4590 nM. For the same molecule, the GI50 [58] was 1860 nM, the TGI [58] was 3970 nM and the GI50 [46] was 1450 nM. It also gave a TGI [46] of 3910 nM, a GI50 [47] of 2030 nM and a TGI [47] of 5620 nM. For the same molecule, the GI50 [48] was 1470 nM, the TGI [48] was 3670 nM and the GI50 [49] was 1730 nM. For the same molecule, the TGI [49] was 3400 nM, the GI50 [50] was 1950 nM and the TGI [50] was 4010 nM. The GI50 [51] was 1540 nM, the TGI [51] was 5050 nM and the GI50 [52] was 4450 nM. For the same molecule, the TGI [52] was 19300 nM, the GI50 [53] was 1240 nM and the TGI [53] was 2690 nM.
